Test results taken from patent US20250134946A1 (GEL4MED, INC., priority 2021, published 2025).
Non-standard residues stand in square brackets, D forms with d. No end group written: not given here.

How the values were obtained:
[1] = cited from earlier work
[2] = Net peptide charge and isoelectric point (FIGS. 9-10); format: physicochemical; conditions: pH 7
Source text: The peptide may be purified. For example, the peptide may be lyophilized. […] Other peptides are within the scope of the disclosure.
Exemplary peptides having a charge of +5 to +9 include […](d)[…], […](d)[…], and […](d)[…]. In other embodiments, the purified peptide may be substantially neutral. […] Net charge may be selected by peptide design. Design of electrostatic charge in the peptide hydrogel may allow control of charge interaction with cell membrane and proteins.

decorin = test: ChaseABC release from peptide hydrogels, bioactivity on decorin (FIGS. 6B, 15); conditions: pilot data, days 3 and 5
Source text: The protein was not degraded.
In addition to release and retention rates, in analogous experiments the released and retained ChaseABC enzyme will also be assayed for bioactivity. Activity will be assessed through the efficacy of the sample to digest the small proteoglycan decorin as described previously.
Importantly, the protein was not degraded.

Compound: NCCCC[C@H](N)C(=O)O [lysine]
- side chain pKa [1]: about 10.5

Compound: O=C(O)C(F)(F)F [trifluoroacetic acid]
- pKa [1]: about 0

Compound: VEVSVSVEV(d)PPTEVSVEVEV (VEVSVSVEV[dP]PTEVSVEVEV)
- net charge [2]: net negative charge

Compound: chondroitinase ABC [ChaseABC]
- bioactivity of released enzyme on decorin substrate (decorin): release of bioactive enzyme from the gel was demonstrated
